We go through eleven compounds from ChEMBL document CHEMBL1201862, “PubChem BioAssay data set” (2004).

Molecules are shown by their SMILES.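 The compound was tested at five concentrations on cells cultured in 96-well plates, with a 48-hour exposure period. Here, GI50 denotes the concentration required for 50% inhibition of growth.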 Active and inactive are the calls of the source. Cut-off read from the data, not from the text of the source: active = GI50 up to about 1.1 µM and inactive = higher.

Among the test systems are SR; SK-OV-3; BT-549; OVCAR-4; NCI/ADR-RES; HOP-62; K562; UACC-257; MDA-MB-231; HT-29; DU-145; SK-MEL-5; ACHN; SK-MEL-2; SK-MEL-28; CCRF-CEM; RPMI-8226; NCI-H226; 786-0; HCC 2998.
Common to all, as to test: growth of human tumour cells (NCI), 48 h

On to `COc1nc(C#CCC(C)O)nc(OC)n1` (configuration not stated), for which the GI50 in the assay on SR is 21.1 µM (inactive); in the assay on SK-OV-3 it was > 100 µM (inactive); in the assay on BT-549, 18.4 µM (inactive); in the assay on OVCAR-4, 18.8 µM (inactive); with NCI/ADR-RES, 21 µM (inactive); in the assay on HOP-62, 4.89 µM (inactive). The GI50 was 38.2 µM (inactive) in the assay on K562; 30.9 µM (inactive) with UACC-257; 21.2 µM (inactive) in the assay on MDA-MB-231; 31.3 µM (inactive) in the assay with HT-29; 22.9 µM (inactive) in the assay with DU-145; 18.8 µM (inactive) with SK-MEL-5. The GI50 in the assay with ACHN was 17.1 µM (inactive); with SK-MEL-2, 33.7 µM (inactive); in the assay on SK-MEL-28 it was 31.6 µM (inactive).
Consider `O=C1C(Br)=C(c2ccccc2)O/C1=C/C(=O)c1ccc(Br)cc1`, for which the GI50 in the assay on SR is 27.5 µM (inactive); in the assay on CCRF-CEM, 26.3 µM (inactive); in the assay on BT-549 it was 5.38 µM (inactive); with RPMI-8226, 19.1 µM (inactive); in the assay with NCI-H226 it was > 100 µM (inactive); in the assay with OVCAR-4, 66.7 µM (inactive). The GI50 in the assay with HOP-62 was > 100 µM (inactive); in the assay on 786-0, 18.4 µM (inactive); with K562, 25.6 µM (inactive); in the assay on MDA-MB-231, 34.8 µM (inactive); in the assay on HT-29 it was 36.1 µM (inactive); in the assay with DU-145, > 100 µM (inactive). Also, the GI50 in the assay on SK-MEL-5 was 52.8 µM (inactive); in the assay with ACHN, 38.5 µM (inactive); with SK-MEL-28, 51.3 µM (inactive); with HCC 2998 it was > 100 µM (inactive).
For the compound `O=C(O)CNC(=O)c1ccccc1O` [SALICYLURIC ACID], the GI50 in the assay with SR, in the assay on SK-OV-3, with CCRF-CEM, in the assay with BT-549, in the assay with RPMI-8226 and in the assay with NCI-H226 was > 100 µM (inactive) throughout. For the same compound, the GI50 in the assay with OVCAR-4, with NCI/ADR-RES, with HOP-62, with 786-0, in the assay on K562 and in the assay with UACC-257 was > 100 µM (inactive) in each case. For the same compound, the GI50 in the assay with MDA-MB-231, in the assay on HT-29, with DU-145, in the assay on SK-MEL-5, with ACHN and with SK-MEL-2 was > 100 µM (inactive) in each case. Further, the GI50 with SK-MEL-28 is > 100 µM (inactive).
In the case of `N#Cc1c(OCCF)c2ccccc2n2c1nc1ccccc12`, the GI50 in the assay on SR is > 100 µM (inactive); in the assay on SK-OV-3, 27 µM (inactive); with CCRF-CEM it was 95.7 µM (inactive); in the assay with RPMI-8226, > 100 µM (inactive); in the assay on NCI-H226 it was 63.5 µM (inactive); in the assay with OVCAR-4, 32.3 µM (inactive). The GI50 with NCI/ADR-RES was 45.3 µM (inactive); with HOP-62 it was 29.9 µM (inactive); with K562, > 100 µM (inactive); with UACC-257, 93.3 µM (inactive); in the assay with MDA-MB-231, > 100 µM (inactive); in the assay on HT-29, 64.3 µM (inactive). The GI50 in the assay with DU-145 is 79.8 µM (inactive); in the assay on SK-MEL-5, 49.5 µM (inactive); in the assay on ACHN, 23.3 µM (inactive); in the assay on SK-MEL-2, > 100 µM (inactive); with SK-MEL-28, > 100 µM (inactive); in the assay on HCC 2998, > 100 µM (inactive).
As for `Cc1cn(C2CC(N)C(C(=O)NCC(=O)O)O2)c(=O)[nH]c1=O` (configuration not stated), the GI50 with SR, in the assay on SK-OV-3, in the assay on CCRF-CEM, in the assay on BT-549, in the assay on RPMI-8226 and in the assay with NCI-H226 was > 100 µM (inactive) in each case. Further, the GI50 is > 100 µM (inactive) with OVCAR-4; > 100 µM (inactive) in the assay with NCI/ADR-RES; > 100 µM (inactive) in the assay on HOP-62; 95.3 µM (inactive) in the assay on K562; > 100 µM (inactive) in the assay on MDA-MB-231; > 100 µM (inactive) in the assay with HT-29. For the same compound, the GI50 with DU-145, in the assay with SK-MEL-5, in the assay on ACHN, in the assay with SK-MEL-28 and with HCC 2998 was > 100 µM (inactive) each time.
With `COc1ccc(-n2sc3ncccc3c2=O)cc1`, the GI50 is 13.2 µM (inactive) in the assay on SR; > 100 µM (inactive) with SK-OV-3; 8.32 µM (inactive) with CCRF-CEM; 20.4 µM (inactive) in the assay on BT-549; 28.3 µM (inactive) in the assay on RPMI-8226; 39.4 µM (inactive) in the assay with NCI-H226. Also, the GI50 is > 100 µM (inactive) with OVCAR-4; 25 µM (inactive) in the assay with NCI/ADR-RES; 23.1 µM (inactive) in the assay on HOP-62; 15.9 µM (inactive) in the assay on 786-0; 18.7 µM (inactive) with UACC-257; 21.7 µM (inactive) with MDA-MB-231. Moreover, the GI50 was 20.8 µM (inactive) with HT-29; 39.4 µM (inactive) in the assay with DU-145; 20 µM (inactive) with SK-MEL-5; 19.4 µM (inactive) in the assay on ACHN; > 100 µM (inactive) in the assay on SK-MEL-2; 23.6 µM (inactive) with SK-MEL-28. The GI50 with HCC 2998 is 46.5 µM (inactive).
Regarding `NC(=O)CCC(NC(=O)c1c2ccccc2nc2ccccc12)C(=O)O` (configuration not stated), the GI50 in the assay on SK-OV-3, in the assay on CCRF-CEM, in the assay with BT-549, in the assay with RPMI-8226, in the assay on NCI-H226 and in the assay on OVCAR-4 was > 100 µM (inactive) each time. The GI50 with NCI/ADR-RES, in the assay with HOP-62, in the assay with 786-0, with K562, in the assay with UACC-257 and with MDA-MB-231 was > 100 µM (inactive) in each case. For the same compound, the GI50 in the assay with HT-29, with DU-145, with SK-MEL-5, with ACHN, in the assay on SK-MEL-2 and in the assay with SK-MEL-28 was > 100 µM (inactive) each time. The GI50 in the assay on HCC 2998 is > 100 µM (inactive).
Turning to `C1=N\CCOCC/N=C\c2ccc(cc2)OCc2cccc(n2)COc2ccc/1cc2`, the GI50 in the assay with SR is > 100 µM (inactive); with SK-OV-3 it was > 100 µM (inactive); in the assay on CCRF-CEM it was > 100 µM (inactive); in the assay on BT-549 it was > 100 µM (inactive); in the assay with RPMI-8226, > 100 µM (inactive); in the assay with NCI-H226, 57.8 µM (inactive). Besides, the GI50 in the assay with OVCAR-4, with NCI/ADR-RES, with HOP-62, in the assay with 786-0, in the assay with K562 and with UACC-257 was > 100 µM (inactive) each time. The GI50 was 54.6 µM (inactive) in the assay on MDA-MB-231; > 100 µM (inactive) in the assay on HT-29; > 100 µM (inactive) with DU-145; > 100 µM (inactive) in the assay with ACHN; > 100 µM (inactive) with SK-MEL-2; > 100 µM (inactive) with SK-MEL-28.
Turning to `O=[N+]([O-])c1cccc(-c2ccc([C@H]3CC(c4ccc(Cl)cc4)=NN3)o2)c1`, the GI50 in the assay on SR is 0.433 µM (active); in the assay on SK-OV-3, 28.8 µM (inactive); in the assay on CCRF-CEM it was 1.43 µM (inactive); in the assay with BT-549, 17.6 µM (inactive); with RPMI-8226, 14.3 µM (inactive); with NCI-H226, 25.5 µM (inactive). The GI50 with OVCAR-4 was 23.2 µM (inactive); with NCI/ADR-RES it was 7.83 µM (inactive); with HOP-62, 20.3 µM (inactive); in the assay on 786-0, 14.6 µM (inactive); in the assay on K562, 19.1 µM (inactive); with UACC-257, 31.7 µM (inactive). The GI50 is 21.3 µM (inactive) in the assay on HT-29; 15.3 µM (inactive) in the assay with DU-145; 13.8 µM (inactive) with SK-MEL-5; 17.7 µM (inactive) in the assay with ACHN; 16.6 µM (inactive) in the assay with HCC 2998.
For the compound `COC1OC2COC(c3ccccc3)OC2C(OC(=S)c2ccccc2)C1O` (configuration not stated), the GI50 in the assay with SR was > 100 µM (inactive); in the assay with SK-OV-3, 19.2 µM (inactive); with CCRF-CEM, 14.3 µM (inactive); in the assay on BT-549 it was > 100 µM (inactive); in the assay with RPMI-8226, 13.9 µM (inactive); in the assay with NCI-H226, 25.1 µM (inactive). Besides, the GI50 is > 100 µM (inactive) in the assay with OVCAR-4; 15.5 µM (inactive) in the assay on NCI/ADR-RES; 12 µM (inactive) with HOP-62; > 100 µM (inactive) with K562; > 100 µM (inactive) in the assay with UACC-257; 14.7 µM (inactive) with MDA-MB-231. Besides, the GI50 with HT-29 was > 100 µM (inactive); in the assay with DU-145, > 100 µM (inactive); in the assay with SK-MEL-5, > 100 µM (inactive); in the assay on ACHN it was 75.5 µM (inactive); in the assay with SK-MEL-2, 51.1 µM (inactive); in the assay with SK-MEL-28, 0.662 µM (active).
As for `C=C1[C@H](OC(C)=O)[C@H]2[C@@H](OC(C)=O)[C@@H](C)C[C@]2(C)C(=O)[C@H](C)/C=C/C(C)(C)C(=O)[C@H](OCC(C)C)[C@H]1OC(C)=O`, the GI50 in the assay with SR is > 25 µM (inactive); with SK-OV-3, > 25 µM (inactive); in the assay with CCRF-CEM, 20.2 µM (inactive); in the assay on BT-549, > 25 µM (inactive); with NCI-H226 it was > 25 µM (inactive); in the assay with OVCAR-4, > 25 µM (inactive). The GI50 with NCI/ADR-RES was > 25 µM (inactive); in the assay with HOP-62, 19.5 µM (inactive); with 786-0, > 25 µM (inactive); with UACC-257 it was > 25 µM (inactive); with MDA-MB-231, > 25 µM (inactive); in the assay with DU-145 it was > 25 µM (inactive). For the same compound, the GI50 with SK-MEL-5, with ACHN, in the assay on SK-MEL-2 and with HCC 2998 was > 25 µM (inactive) each time.
